Test results taken from patent US10130630B2, “BTK inhibitors” (MERCK SHARP & DOHME CORP., priority 2014, dated 2018).

Experiments:
[1] = biological target: T1, BTK enzyme (full-length BTK, hBTK) (Homo sapiens, UniProt Q06187); assay: Btk enzyme activity assay (LANCE TR-FRET); format: biochemical; conditions: 50 pM hBTK, 25 μM ATP, 60 minute compound and enzyme incubation, read-out: BTK binding IC50
T1 construct: recombinant protein from baculovirus-transfected Sf9 cells: full-length BTK, 6HIS-tag cleaved; 6HIS (cleaved yes); made in house; host or cells: baculovirus-transfected Sf9 cells
T1 sequence (Q06187 whole entry): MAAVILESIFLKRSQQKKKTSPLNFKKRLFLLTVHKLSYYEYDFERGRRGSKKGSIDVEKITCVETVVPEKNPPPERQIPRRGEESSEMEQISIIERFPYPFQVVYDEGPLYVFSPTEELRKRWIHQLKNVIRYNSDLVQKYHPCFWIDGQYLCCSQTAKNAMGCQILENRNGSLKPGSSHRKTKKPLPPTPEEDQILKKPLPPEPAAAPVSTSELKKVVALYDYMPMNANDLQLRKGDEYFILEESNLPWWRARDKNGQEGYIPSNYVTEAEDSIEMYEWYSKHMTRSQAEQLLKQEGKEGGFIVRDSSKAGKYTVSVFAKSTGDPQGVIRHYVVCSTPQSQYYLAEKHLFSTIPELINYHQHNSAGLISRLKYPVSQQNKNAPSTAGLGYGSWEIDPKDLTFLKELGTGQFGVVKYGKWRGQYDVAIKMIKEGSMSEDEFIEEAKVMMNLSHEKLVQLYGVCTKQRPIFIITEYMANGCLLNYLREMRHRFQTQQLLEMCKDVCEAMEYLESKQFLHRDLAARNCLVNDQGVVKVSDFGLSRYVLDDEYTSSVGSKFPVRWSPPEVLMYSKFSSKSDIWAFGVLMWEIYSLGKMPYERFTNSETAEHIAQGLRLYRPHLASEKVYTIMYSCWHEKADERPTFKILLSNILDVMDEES
Experimental: BTK enzymatic activity was determined with the LANCE (Lanthanide Chelate Excite) TR-FRET (Time-resolved fluorescence resonance energy transfer) assay. […] To each well of a black non-binding surface Corning 384-well microplate (Corning Catalog #3820), 5 nL of compound (2000 fold dilution in final assay volume of 10 μL) was dispensed, followed by the addition of 7.5 μL of 1× kinase buffer (50 mM Hepes 7.5, 10 mM MgCl2, 0.01% Brij-35, 1 mM EGTA, 0.05% BSA & 1 mM DTT) containing 5.09 pg/μL (66.67 pM) of BTK enzyme (recombinant protein from baculovirus-transfected Sf9 cells: full-length BTK, 6HIS-tag cleaved). Following a 60 minute compound and enzyme incubation, each reaction was initiated by the addition of 2.5 μL 1× kinase buffer containing 8 μM biotinylated “A5” peptide (Biotin-[…]-NH2) (SEQ.ID.NO.: 1), and 100 μM ATP. The final reaction in each well of 10 μL consists of 50 pM hBTK, 2 μM biotin-A5-peptide, and 25 μM ATP. Phosphorylation reactions were allowed to proceed for 120 minutes. Reactions were immediately quenched by the addition of 20 uL of 1× quench buffer (15 mM EDTA, 25 mM Hepes 7.3, and 0.1% Triton X-100) containing detection reagents (0.626 nM of LANCE-Eu-W1024-anti-phosphoTyrosine antibody, PerkinElmer and 86.8 nM of Streptavidin-conjugated Dylight 650, Dyomics/ThermoFisher Scientific). After 60 minutes incubation with detection reagents, reaction plates were read on a PerkinElmer EnVision plate reader using standard TR-FRET protocol. Briefly, excitation of donor molecules (Eu-chelate:anti-phospho-antibody) with a laser light source at 337 nm produces energy that can be transferred to Dylight-650 acceptor molecules if this donor:acceptor pair is within close proximity. Fluorescence intensity at both 665 nm (acceptor) and 615 nm (donor) are measured and a TR-FRET ratio calculated for each well (acceptor intensity/donor intensity). IC50 values were determined by 4 parameter robust fit of TR-FRET ratio values vs. (Log10) compound concentrations.
The following Table 2 provides specific IC50 values for all the examples. The IC50 values set forth below were determined according to Assay method described above.

[2] = system: adenosine uptake into HeLa cells; assay: [3H]Adenosine uptake assay in HeLa cells; format: cell-based; conditions: Homo sapiens, HeLa, 60 minutes uptake, read-out: ADU inhibition IC50 (adenosine uptake inhibition potency)
Experimental: Compounds were also screened in an adenosine uptake functional cellular assay using the protocol described below.
Adenosine uptake activity was determined by monitoring the accumulation of tritiated adenosine into HeLa cells (ATCC catalog # CCL-2) using a PMT-based radiometric detection instrument. In this assay, the potency (IC50) of each compound was determined from a ten point (1:3 serial dilution; final compound concentration range in assay from 10 μM to 0.032 nM) titration curve using the following outlined procedure. To each well of a 96-well CytoStar-T scintillating microplate (Perkin Elmer Catalog # RPNQ0163), 25 000 HeLa cells in 100 μL of growth medium comprising: Minimum Essential Media (Life Technologies Catalog # 11095-080)+10% (v/v) foetal bovine serum (FBS; Sigma Aldrich Catalog # F2442) was added. These cells were incubated overnight at 37° C. in a humidified atmosphere with 5% (v/v) CO2. After this time the growth medium was removed and replaced with 40 μL assay medium comprising: Hanks balanced salts solution (HBSS; Thermo Fisher Catalog # SH30268.01)+5% (v/v) FBS. Compound stock solutions in DMSO were diluted in assay medium to 2.5× final compound concentration maintaining a constant DMSO concentration of 0.25% (v/v). 40 μL of compound in assay medium was dispensed into individual wells of the Cytostar-T plates and the plates were incubated for 30 minutes under ambient laboratory conditions. Following this incubation, 20 μL of 500 nM [^3H]adenosine (American Radiolabeled Chemicals Inc. Catalog # ART0287) in assay medium was added and incubated for a further 60 minutes under ambient laboratory conditions. The amount of radiolabel accumulation was then determined using a Perkin Elmer Topcount NXT microplate reader. In brief, HeLa cells adhere to the bottom of the Cytostar-T plate, uptake of [^3H]adenosine into these cells brings the radiolabel into sufficient proximity to excite the scintillant in the base of the plates. These events are captured by single PMT, time-resolved coincidence counting. IC50 values were determined by 4 parameter robust fit of counts per second values vs. (Log10) compound concentrations.

| Structure (SMILES) | IC50 [1] | IC50 [2] |
| --- | --- | --- |
| CCOc1cc(C(=O)Nc2cc(C#N)ccn2)cc(F)c1-c1nc(C2CCC3N(C2)C(=O)CC32CC2)n2ccnc(N)c12 (stereo not drawn) [Compound 38, 4-[8-amino-3-(3′-oxohexahydro-5′H-spiro[cyclopropane-1,1′-indolizin]-6′-yl)imidazo[1,5-a]pyrazin-1-yl]-N-(4-cyanopyridin-2-yl)-3-ethoxy-5-fluorobenzamide] | 0.222 nM | 765 nM |
| COc1cc(C(=O)Nc2cc(C(F)(F)F)ccn2)ccc1-c1nc([C@@H]2CC[C@H]3CNC4(CC4)C(=O)N3C2)n2ccnc(N)c12 [Compound 41, 4-{8-amino-3-[(7′R,9a′S)-4′-oxohexahydro-2′H-spiro[cyclopropane-1,3′-pyrido[1,2-a]pyrazin]-7′-yl]imidazo[1,5-a]pyrazin-1-yl}-3-methoxy-N-[4-(trifluoromethyl)pyridin-2-yl]benzamide] | 0.252 nM | 1340 nM |
| Nc1nccn2c([C@@H]3CC[C@H]4C(O)C5(CC5)C(=O)N4C3)nc(-c3ccc(C(=O)Nc4cc(C5CC5)ccn4)cc3)c12 (stereo partly drawn) [Compound 13, 4-(8-amino-3-((1′S,6′R,8a′S)-1′-hydroxy-3′-oxohexahydro-1′H-spiro[cyclopropane-1,2′-indolizin]-6′-yl)imidazo[1,5-a]pyrazin-1-yl)-N-(4-cyclopropanepyridin-2-yl)benzamide] | 1.22 nM | 610 nM |
| COc1cc(C(=O)Nc2cc(C(F)(F)F)ccn2)ccc1-c1nc([C@H]2CC[C@H]3N(C2)C(=O)C2(CC2)C3(F)F)n2ccnc(N)c12 [Compound 29, 4-{8-amino-3-[(6′S,8a′R)-1′,1′-difluoro-3′-oxohexahydrospiro[cyclopropane-1,2′-indolizin]-6′-yl]imidazo[1,5-a]pyrazin-1-yl}-3-methoxy-N-[4-(trifluoromethyl)pyridin-2-yl]benzamide] | 1.51 nM | 672 nM |
| CCOc1cc(C(=O)Nc2cc(C(F)(F)F)n(C)n2)cc(F)c1-c1nc(C2CCC3N(C2)C(=O)CC32CC2)n2c(F)cnc(N)c12 (stereo not drawn) [Compound 22, 4-[8-amino-5-fluoro-3-(3′-oxohexahydro-5′H-spiro[cyclopropane-1,1′-indolizin]-6′-yl)imidazo[1,5-a]pyrazin-1-yl]-3-ethoxy-5-fluoro-N-[1-methyl-5-(trifluoromethyl)-1H-pyrazol-3-yl]benzamide] | 0.269 nM | 1430 nM |
| CCOc1cc(C(=O)Nc2cc(C#N)ccn2)cc(F)c1-c1nc(C2CCC3N(C2)C(=O)CC32CC2)n2c(Cl)cnc(N)c12 (stereo not drawn) [Compound 37, 4-[8-amino-5-chloro-3-(3′-oxohexahydro-5′H-spiro[cyclopropane-1,1′-indolizin]-6′-yl)imidazo[1,5-a]pyrazin-1-yl]-N-(4-cyanopyridin-2-yl)-3-ethoxy-5-fluorobenzamide] | 0.186 nM | 375 nM |
| CCOc1cc(C(=O)Nc2cc(C(F)(F)F)ccn2)ccc1-c1nc([C@@H]2CC[C@@H]3N(C2)C(=O)C2(CC2)C3(F)F)n2ccnc(N)c12 [Compound 27, 4-{8-amino-3-[(6′R,8a′S)-1′,1′-difluoro-3′-oxohexahydrospiro[cyclopropane-1,2′-indolizin]-6′-yl]imidazo[1,5-a]pyrazin-1-yl}-3-ethoxy-N-[4-(trifluoromethyl)pyridin-2-yl]benzamide] | 1.6 nM | 1140 nM |
| Nc1nccn2c([C@@H]3CC[C@H]4C(=O)C5(CC5)C(=O)N4C3)nc(-c3ccc(C(=O)Nc4cc(C(F)(F)F)ccn4)cc3F)c12 [Compound 7, 4-{8-amino-3-[(6′R,8a′S)-1′,3′-dioxohexahydrospiro[cyclopropane-1,2′-indolizin]-6′-yl]imidazo[1,5-a]pyrazin-1-yl}-3-fluoro-N-[4-(trifluoromethyl)pyridin-2-yl]benzamide] | 0.425 nM | 173 nM |
| Nc1nccn2c([C@H]3CC[C@H]4N(C3)C(=O)C3(CC3)C4(F)F)nc(-c3ccc(C(=O)Nc4cc(C(F)(F)F)ccn4)cc3)c12 [Compound 31, 4-{8-amino-3-[(6′S,8a′R)-1′,1′-difluoro-3′-oxohexahydrospiro[cyclopropane-1,2′-indolizin]-6′-yl]imidazo[1,5-a]pyrazin-1-yl}-N-[4-(trifluoromethyl)pyridin-2-yl]benzamide] | 0.41 nM | 144 nM |
| CCOc1cc(C(=O)Nc2cc(C(F)(F)F)n(C)n2)c(F)cc1-c1nc([C@@H]2CC[C@@H]3N(C2)C(=O)C2(CC2)C3(F)F)n2ccnc(N)c12 [Compound 33, 4-{8-amino-3-[(6′R,8a′S)-1′,1′-difluoro-3′-oxohexahydrospiro[cyclopropane-1,2′-indolizin]-6′-yl]imidazo[1,5-a]pyrazin-1-yl}-5-ethoxy-2-fluoro-N-[1-methyl-5-(trifluoromethyl)-1H-pyrazol-3-yl]benzamide] | 9.04 nM | 1440 nM |
| CCOc1cc(C(=O)Nc2cc(C(F)(F)F)ccn2)ccc1-c1nc([C@H]2CC[C@@H]3CC4(CC4)C(=O)N3C2)n2ccnc(N)c12 [Compound 48, 4-{8-amino-3-[(6′S,8a′R)-3′-oxohexahydrospiro[cyclopropane-1,2′-indolizin]-6′-yl]imidazo[1,5-a]pyrazin-1-yl}-3-ethoxy-N-[4-(trifluoromethyl)pyridin-2-yl]benzamide] | 1.19 nM | 998 nM |
| CCOc1cc(C(=O)Nc2cc(C(F)(F)F)ccn2)cc(F)c1-c1nc([C@@H]2CC[C@@H]3N(C2)C(=O)CC32CC2)n2ccnc(N)c12 [Compound 20, 4-{8-amino-3-[(6′R,8a′S)-3′-oxohexahydro-5′H-spiro[cyclopropane-1,1′-indolizin]-6′-yl]imidazo[1,5-a]pyrazin-1-yl}-3-ethoxy-5-fluoro-N-[4-(trifluoromethyl)pyridin-2-yl]benzamide] | 0.171 nM | 871 nM |
| Nc1nccn2c([C@@H]3CC[C@H]4CNC5(CC5)C(=O)N4C3)nc(-c3ccc(C(=O)Nc4cc(C(F)(F)F)ccn4)cc3)c12 [Compound 40, 4-{8-amino-3-[(7′R,9a′S)-4′-oxohexahydro-2′H-spiro[cyclopropane-1,3′-pyrido[1,2-a]pyrazin]-7′-yl]imidazo[1,5-a]pyrazin-1-yl}-N-[4-(trifluoromethyl)pyridin-2-yl]benzamide] | 0.173 nM | 168 nM |
| CCOc1cc(C(=O)Nc2cc(C(F)(F)F)ccn2)ccc1-c1nc([C@@H]2CC[C@@H]3N(C2)C(=O)CC32CC2)n2ccnc(N)c12 [Compound 18, 4-{8-amino-3-[(6′R,8a′S)-3′-oxohexahydro-5′H-spiro[cyclopropane-1,1′-indolizin]-6′-yl]imidazo[1,5-a]pyrazin-1-yl}-3-ethoxy-N-[4-(trifluoromethyl)pyridin-2-yl]benzamide] | 0.127 nM | 1110 nM |
| COc1cc(C(=O)Nc2cc(C(F)(F)F)ccn2)cc(F)c1-c1nc([C@@H]2CC[C@@H]3N(C2)C(=O)C2(CC2)C3(F)F)n2ccnc(N)c12 [Compound 30, 4-{8-amino-3-[(6′R,8a′S)-1′,1′-difluoro-3′-oxohexahydrospiro[cyclopropane-1,2′-indolizin]-6′-yl]imidazo[1,5-a]pyrazin-1-yl}-3-fluoro-5-methoxy-N-[4-(trifluoromethyl)pyridin-2-yl]benzamide] | 1.61 nM | 1070 nM |
